Results taken from patent US11877574B2, “Herbicidal oil dispersion and method” (Arysta LifeScience Inc., priority 2018, dated 2024).

Key:
[1] = Active ingredient assay and recovery on storage (Table 2); format: physicochemical
[2] = Active ingredient assay on storage, SCB239-12 (Table 3); format: physicochemical

CCCCC(CC)COC(=O)COc1ccc(Cl)cc1C (centres unmarked) [MCPA, 2-ethylhexyl 2-(4-chloro-2-methylphenoxy) acetate]
Assay (% w/w) ([1]; 1 month storage, 0° C.): 34.61 % w/w
Assay (% w/w) ([1]; 1 month storage, 40° C.): 34.69 % w/w
Assay (% w/w) ([1]; 1 month storage, T/C): 34.68 % w/w
Assay (% w/w) ([1]; 1 month storage, −10° C.): 34.65 % w/w
Assay (% w/w) ([1]; 2 month storage, 0° C.): 34.82 % w/w
Assay (% w/w) ([1]; 2 month storage, 40° C.): 34.90 % w/w
Assay (% w/w) ([1]; 2 month storage, T/C): 34.94 % w/w
Assay (% w/w) ([1]; 2 month storage, −10° C.): 34.92 % w/w
Assay (% w/w) ([1]; 2 wks, 54° C.): 35.05 % w/w
Assay (% w/w) ([1]; 3 month storage, 0° C.): 35.25 % w/w
Assay (% w/w) ([1]; 3 month storage, 25° C.): 35.23 % w/w
Assay (% w/w) ([1]; 3 month storage, 40° C.): 35.28 % w/w
Assay (% w/w) ([1]; 3 month storage, T/C): 35.30 % w/w
Assay (% w/w) ([1]; 3 month storage, −10° C.): 35.36 % w/w
Assay (% w/w) ([1]; 6 month storage, 25° C.): 34.14 % w/w
Assay (% w/w) ([1]; 9 month storage, 25° C.): 34.73 % w/w
Assay (% w/w) ([1]; 12 month storage, 25° C.): 34.84 % w/w
Assay (% w/w) ([1]; F/T Sample): 35.06 % w/w
Assay (% w/w) ([1]; initial): 35.01 % w/w
Assay (% w/w) ([2]; 1 month storage, 0° C.): 33.65 % w/w
Recovery of active ingredient (% of initial assay) ([2]; 1 month storage, 0° C.): 99.88 % w/w
Assay (% w/w) ([2]; 1 month storage, 40° C.): 33.61 % w/w
Recovery of active ingredient (% of initial assay) ([2]; 1 month storage, 40° C.): 99.77 % w/w
Assay (% w/w) ([2]; 1 month storage, T/C): 33.64 % w/w
Recovery of active ingredient (% of initial assay) ([2]; 1 month storage, T/C): 99.85 % w/w
Assay (% w/w) ([2]; 2 month storage, 0° C.): 34.07 % w/w
Recovery of active ingredient (% of initial assay) ([2]; 2 month storage, 0° C.): 101.15 % w/w
Assay (% w/w) ([2]; 2 month storage, 40° C.): 33.84 % w/w
Recovery of active ingredient (% of initial assay) ([2]; 2 month storage, 40° C.): 100.47 % w/w
Assay (% w/w) ([2]; 2 month storage, T/C): 33.97 % w/w
Recovery of active ingredient (% of initial assay) ([2]; 2 month storage, T/C): 100.84 % w/w
Assay (% w/w) ([2]; 2 wks, 54° C.): 34.24 % w/w
Recovery of active ingredient (% of initial assay) ([2]; 2 wks, 54° C.): 101.65 % w/w
Assay (% w/w) ([2]; 3 month storage, 0° C.): 33.76 % w/w
Recovery of active ingredient (% of initial assay) ([2]; 3 month storage, 0° C.): 100.21 % w/w
Assay (% w/w) ([2]; 3 month storage, 25° C.): 33.64 % w/w
Recovery of active ingredient (% of initial assay) ([2]; 3 month storage, 25° C.): 99.86 % w/w
Assay (% w/w) ([2]; 3 month storage, 40° C.): 33.61 % w/w
Recovery of active ingredient (% of initial assay) ([2]; 3 month storage, 40° C.): 99.76 % w/w
Assay (% w/w) ([2]; 3 month storage, −10° C.): 33.41 % w/w
Recovery of active ingredient (% of initial assay) ([2]; 3 month storage, −10° C.): 99.20 % w/w
Assay (% w/w) ([2]; F/T sample): 34.30 % w/w
Recovery of active ingredient (% of initial assay) ([2]; F/T sample): 101.84 % w/w
Assay (% w/w) ([2]; Initial): 33.69 % w/w
